ChEMBL document CHEMBL5518159, “Thiazole-based analogues as potential antibacterial agents against methicillin-resistant Staphylococcus aureus (MRSA) and their SAR elucidation” (Eur J Med Chem, 2023)
≈ marks a conversion by molar mass, not a printed value.

Key:
Format in all cases: functional
Staphylococcus aureus [1] = assay: Antimicrobial activity against Methicillin-resistant Staphylococcus aureus ATCC 43300 assessed as bacterial growth inhibition incubated for 18 hrs by broth micro-dilution method
Staphylococcus aureus [2] = assay: Antibacterial activity against […] Staphylococcus aureus ATCC 29213 assessed as reduction in bacterial growth incubated for 16 to 20 hrs by CLSI based two-fold serial dilution method; conditions: time 16-20 hrs
Staphylococcus aureus [3] = assay: Antibacterial activity against Methicillin-resistant Staphylococcus aureus AUMC 261 assessed as bacterial growth inhibition incubated for 24 hrs by broth microdilution analysis
Staphylococcus aureus [4] = assay: Antibacterial activity against methicillin-resistant Staphylococcus aureus assessed as inhibition of bacterial growth measured after 24 hrs by broth micro-dilution method
Staphylococcus aureus [5] = assay: Antibacterial activity against Methicillin-resistant Staphylococcus aureus ATCC 43300 clinical isolate assessed as reduction in microbial growth incubated for 16 to 20 hrs by CLSI based two-fold serial dilution method; conditions: time 16-20 hrs
Staphylococcus aureus [6] = assay: Antibacterial activity against methicillin-resistant Staphylococcus aureus ATCC 43300 assessed as bacterial growth inhibition incubated for 24 hrs by broth dilution method
Staphylococcus aureus [7] = assay: Antibacterial activity against methicillin-resistant Staphylococcus aureus ATCC 43300 assessed as reduction in bacterial growth by CLSI protocol based broth microdilution method
Escherichia coli [8] = assay: Antibacterial activity against Escherichia coli ATCC 35210 assessed as reduction in microbial growth
Staphylococcus aureus [9] = assay: Antibacterial activity against Methicillin-resistant Staphylococcus aureus assessed as reduction of microbial growth by Muller Hinton broth based dilution assay
Enterococcus faecium = assay: Antimicrobial activity against Vancomycin-resistant Enterococcus faecium assessed as reduction in bacterial viability incubated for 18 hrs by CLSI protocol based Muller Hinton broth based dilution assay
Staphylococcus aureus [10] = assay: Antimicrobial activity against […] Staphylococcus aureus ATCC 29213 assessed as reduction in bacterial viability incubated for 18 hrs by CLSI protocol based Muller Hinton broth based dilution assay
Escherichia coli [11] = assay: Antibacterial activity against Escherichia coli ATCC 35210 assessed as reduction in bacterial growth measured for 24 hrs by broth micro-dilution method
Staphylococcus aureus [12] = assay: Antibacterial activity against methicillin-resistant Staphylococcus aureus ATCC 33592 assessed as reduction in bacterial growth
Escherichia coli [13] = assay: Antibacterial activity against Escherichia coli ATCC 25922 assessed as reduction in bacterial growth by broth microdilution method
Staphylococcus aureus [14] = assay: Antibacterial activity against Methicillin-resistant Staphylococcus aureus […] assessed as reduction in microbial growth
Staphylococcus aureus [15] = assay: Antibacterial activity against Methicillin-resistant Staphylococcus aureus ATCC 43300 assessed as reduction in bacterial growth measured for 24 hrs by CLSI based broth microdilution method
Staphylococcus aureus [16] = assay: Antibacterial activity against Methicillin-sensitive Staphylococcus aureus ATCC 43300 assessed as reduction in microbial growth by CLSI based broth microdilution method
Staphylococcus aureus [17] = assay: Antibacterial activity against Staphylococcus aureus ATCC 49444 assessed as reduction in microbial growth
Staphylococcus aureus [18] = assay: Antibacterial activity against clinical isolate Methicillin resistant Staphylococcus aureus 2658 RCMB assessed as reduction in microbial growth incubated for 16 to 24 hrs by CLSI-based Muller Hinton broth based microdilution method; conditions: time 16-24 hrs
Staphylococcus aureus [19] = assay: Antibacterial activity against methicillin-resistant Staphylococcus aureus ATCC 33592 assessed as reduction in microbial growth incubated for 16 to 20 hrs by CLSI based two-fold serial dilution method; conditions: time 16-20 hrs
Staphylococcus aureus [20] = assay: Antimicrobial activity against Methicillin-resistant Staphylococcus aureus ATCC BAA41 assessed as bacterial growth inhibition measured after 18 hrs by CLSI based Muller Hinton broth microdilution method
Staphylococcus aureus [21] = assay: Antimicrobial activity against Methicillin-resistant Staphylococcus aureus ATCC 43300 assessed as bacterial growth inhibition measured after 18 hrs by CLSI based Muller Hinton broth microdilution method
Staphylococcus aureus [22] = assay: Antimicrobial activity against Methicillin-resistant Staphylococcus aureus ATCC 33591 assessed as bacterial growth inhibition measured after 18 hrs by CLSI based Muller Hinton broth microdilution method
Staphylococcus aureus [23] = assay: Antibacterial activity against […] Staphylococcus aureus ATCC 6538 assessed as reduction in bacterial growth incubated for 24 hrs by broth micro-dilution method

For `N#C/C(C(=O)NCc1ccco1)=C1/SC(Cc2ccc(Cl)cc2)C(=O)N1c1ccccc1` (centres undefined), the MIC (Staphylococcus aureus [1]) was 4 µg/mL (≈ 8.62 µM).
Compound `CCCCCCNc1ccc(S(=O)(=O)CC(=O)c2nccs2)cc1` has an MIC (Staphylococcus aureus [2]) of 1 µg/mL (≈ 2.73 µM).
Work on `O=C(O)c1cn(C2CC2)c2cc(N3CCNCC3)c(F)cc2c1=O` [CIPROFLOXACIN] yielded an MIC (Staphylococcus aureus [1]) of 32 µg/mL (≈ 96.6 µM) and an MIC (Staphylococcus aureus [3]) of 0.2 µg/mL (≈ 0.604 µM).
`Cc1cnc(/C=c2\[nH]c(=O)/c(=C\c3cccc(F)c3)s2)s1` gave an MIC (Staphylococcus aureus [4]) of 40 µg/mL (≈ 126 µM).
For `Cc1cc(/C=C2\Sc3ccccc3N2CCCN2CCC(C)CC2)c2ccccc2[n+]1C.[I-]`, the MIC (Staphylococcus aureus [5]) was 2 µg/mL.
With `O=C1CSC(c2c(F)cccc2Cl)N1c1nc2ccc(OC(F)(F)F)cc2s1` (centres undefined) the MBC (Staphylococcus aureus [6]) was 120 µg/mL (≈ 267 µM) and the MIC (Staphylococcus aureus [7]) was 250 µg/mL (≈ 557 µM).
`N#Cc1c(N2CCN(CC(=O)Nc3nccs3)CC2)nc(-c2ccco2)c2c1CCC2` was tested, and the MIC (Escherichia coli [8]) was 230 µg/mL.
`O=C(/C(=C/c1ccc(-c2ccc([N+](=O)[O-])cc2)cc1)Oc1ccc2c(CN(CCO)CCO)cc(=O)oc2c1)c1nccs1` showed an MIC (Staphylococcus aureus [9]) of 4 µg/mL.
For `CCCN(CCC)CCCN1/C(=C/c2c3ccccc3[n+](C)c3c2oc2ccccc23)Sc2ccccc21.[I-]`, the MIC (Enterococcus faecium) was 0.25 µg/mL and the MIC (Staphylococcus aureus [10]) was 0.25 µg/mL.
`Cc1[nH]c2ccc(Cl)cc2c1-c1csc(N)n1` showed an MIC (Escherichia coli [11]) of 60 µg/mL (≈ 227 µM), an MIC (Staphylococcus aureus [12]) of 100 µg/mL (≈ 379 µM) and an MIC (Escherichia coli [13]) of 60 µg/mL (≈ 227 µM). For the same compound, the MIC (Staphylococcus aureus [14]) was 230 µg/mL.
`CN[C@H](CC(C)C)C(=O)N[C@H]1C(=O)N[C@@H](CC(N)=O)C(=O)N[C@H]2C(=O)N[C@H]3C(=O)N[C@H](C(=O)N[C@H](C(=O)O)c4cc(O)cc(O)c4-c4cc3ccc4O)[C@H](O)c3ccc(c(Cl)c3)Oc3cc2cc(c3O[C@@H]2O[C@H](CO)[C@@H](O)[C@H](O)[C@H]2O[C@H]2C[C@](C)(N)[C@H](O)[C@H](C)O2)Oc2ccc(cc2Cl)[C@H]1O` [VANCOMYCIN] was tested, and the MIC50 (Staphylococcus aureus [15]) was 4 µg/mL (≈ 2.76 µM), the MIC90 (Staphylococcus aureus [16]) was 16 µg/mL and the MIC (Staphylococcus aureus [4]) was 1.95 µg/mL (≈ 1.35 µM).
Compound `O=C1CSC(c2c(Cl)cccc2Cl)N1c1nc2ccc(OC(F)(F)F)cc2s1` (centres undefined) has an MBC (Staphylococcus aureus [6]) of 120 µg/mL (≈ 258 µM) and an MIC (Staphylococcus aureus [7]) of 250 µg/mL (≈ 537 µM).
`O=c1c2ccccc2nc(C(c2nccs2)c2nccs2)n1-c1ccc(F)cc1` was tested, and the MIC (Staphylococcus aureus [17]) was 32 µg/mL.
`O=C(O)c1cn(C2CC2)c2cc(N3CCN(C(=O)CN4C(=O)S/C(=C\c5ccc(F)cc5)C4=O)CC3)c(F)cc2c1=O` showed an MIC (Staphylococcus aureus [3]) of 2.88 µg/mL (≈ 4.84 µM).
With `Cc1nc(-c2ccc3ccccc3c2)sc1-c1nnc(NC(=N)N)o1` the MIC (Staphylococcus aureus [18]) was 1.9 µg/mL.
Compound `Cc1cnc(/C=c2\[nH]c(=O)/c(=C\c3ccc(Br)cc3)s2)s1` has an MIC (Staphylococcus aureus [4]) of 40 µg/mL (≈ 105 µM).
In the case of `O=C1CSC(c2ccc(Cl)cc2)N1c1nc2ccc(OC(F)(F)F)cc2s1` (centres undefined), the MBC (Staphylococcus aureus [6]) is reported as 120 µg/mL (≈ 279 µM) and the MIC (Staphylococcus aureus [7]) is reported as 250 µg/mL (≈ 580 µM).
`COc1ccc(/C=c2/s/c(=C/c3ncc(C)s3)[nH]c2=O)cc1` showed an MIC (Staphylococcus aureus [4]) of 40 µg/mL (≈ 121 µM).
`CC(C)Cc1nc(N2CCN(CC(=O)Nc3nccs3)CC2)c(C#N)c2c1CCC2` gave an MIC (Escherichia coli [8]) of 230 µg/mL.
`CCn1cc(-c2csc(N)n2)c(=O)c2cc(F)c(N3CCN(Cc4ccc(Cl)c(Cl)c4)CC3)cc21` showed an MIC (Staphylococcus aureus [19]) of 8 µg/mL.
`CCn1cc(-c2csc(N)n2)c(=O)c2cc(F)c(N3CCN(Cc4ccc(Cl)cc4Cl)CC3)cc21` gave an MIC (Staphylococcus aureus [19]) of 8 µg/mL.
`CCc1nc(N2CCN(CC(=O)Nc3nccs3)CC2)c(C#N)c2c1COC(C)(C)C2` was tested, and the MIC (Escherichia coli [8]) was 230 µg/mL.
For `CN1/C(=C/c2cc(/C=C/c3cccnc3)[n+](C)c3ccccc23)Sc2ccccc21.[I-]`, the MIC (Staphylococcus aureus [20]) was 1.5 µg/mL, the MIC (Staphylococcus aureus [21]) was 1.5 µg/mL and the MIC (Staphylococcus aureus [22]) was 1.5 µg/mL.
For `O=C1CSC(c2ccc([N+](=O)[O-])cc2)N1c1nc2ccc(Cl)cc2s1` (centres undefined), the MIC (Staphylococcus aureus [23]) was 100 µg/mL (≈ 255 µM).
`O=C(/C(=C/c1ccc(-c2ccc(Cl)cc2Cl)cc1)Oc1ccc2c(CN(CCO)CCO)cc(=O)oc2c1)c1nccs1` was tested, and the MIC (Staphylococcus aureus [9]) was 4 µg/mL.
With `O=C1CSC(c2ccc(Cl)cc2Cl)N1c1nc2ccc(OC(F)(F)F)cc2s1` (centres undefined) the MBC (Staphylococcus aureus [6]) was 120 µg/mL (≈ 258 µM) and the MIC (Staphylococcus aureus [7]) was 250 µg/mL (≈ 537 µM).
